Test: Stability of the crystal forms based on DSC endothermic test
Type: physicochemical
Conditions: analysis based on measurement results of a DSC endothermic test; rank order among polymorphs of compound (I)
Excerpt: FIGS. 1, 4 and 7 show the IR (KBr) spectrum, DSC endothermic curve and X-ray diffraction pattern of the crystals, respectively.
FIGS. 2, 5 and 8 show the IR (KBr) spectrum, DSC endothermic curve and X-ray diffraction pattern of the crystals, respectively.
FIGS. 3, 6 and 9 show the […]

C#CCC/C(O)=C(\C#N)C(=O)Nc1ccc(C(F)(F)F)cc1 [B-form crystals, 2-cyano-3-hydroxy-N-(4-trifluoromethylphenyl) hept-2-en-6-ynamide]
stability order of the crystal forms: B-form crystals>C-form crystals>A-form crystals

— US20060217440A1, “Porcess for production of 2-cyano-3-hydroxy-n-(4-trifluoromethylphenyl)hept-2-en-6-ynamide and process for production of polymorphs thereof” (priority 2003, published 2006)
